Legend:
Details in all cases: Compound concentration 100.0 nM
[1] = target: Cyclin-dependent kinase 8 (Homo sapiens) (UniProt P49336)
[2] = target: Serine/threonine-protein kinase PAK 1 (Homo sapiens) (UniProt Q13153)
[3] = target: Serine/threonine-protein kinase MAK (Homo sapiens) (UniProt P20794)
[4] = target: Mitogen-activated protein kinase kinase kinase 13 (Homo sapiens) (UniProt O43283)
[5] = target: Platelet-derived growth factor receptor alpha (Homo sapiens) (UniProt P16234)
[6] = target: Cyclin-dependent kinase 18 (Homo sapiens) (UniProt Q07002)
[7] = target: Serine/threonine-protein kinase TAO3 (Homo sapiens) (UniProt Q9H2K8)
[8] = target: Interleukin-1 receptor-associated kinase 1 (Homo sapiens) (UniProt P51617)
[9] = target: Rho-associated protein kinase 1 (Homo sapiens) (UniProt Q13464)
[10] = target: Serine/threonine-protein kinase LATS1 (Homo sapiens) (UniProt O95835)
[11] = target: G protein-coupled receptor kinase 4 (Homo sapiens) (UniProt P32298)
[12] = target: Inhibitor of nuclear factor kappa-B kinase subunit beta (Homo sapiens) (UniProt O14920)
[13] = target: Dual specificity mitogen-activated protein kinase kinase 2 (Homo sapiens) (UniProt P36507)
[14] = target: Vascular endothelial growth factor receptor 1 (Homo sapiens) (UniProt P17948)
[15] = target: Activin receptor type-1B (Homo sapiens) (UniProt P36896)
[16] = test system: Receptor-type tyrosine-protein kinase FLT3 (Homo sapiens), P36888 [UNDEFINED MUTATION]
[17] = target: Testis-specific serine/threonine-protein kinase 1 (Homo sapiens) (UniProt Q9BXA7)
[18] = target: Phosphatidylinositol 3-kinase catalytic subunit type 3 (Homo sapiens) (UniProt Q8NEB9)
[19] = target: Angiopoietin-1 receptor (Homo sapiens) (UniProt Q02763)
[20] = test system: Epidermal growth factor receptor (Homo sapiens), P00533 [T790M]
[21] = target: Serine/threonine-protein kinase 32C (Homo sapiens) (UniProt Q86UX6)
[22] = target: Serine/threonine-protein kinase 26 (Homo sapiens) (UniProt Q9P289)
[23] = target: Dual specificity protein kinase CLK4 (Homo sapiens) (UniProt Q9HAZ1)
[24] = target: Serine/threonine-protein kinase Nek10 (Homo sapiens) (UniProt Q6ZWH5)
[25] = test system: Fibroblast growth factor receptor 3 (Homo sapiens), P22607 [G697C]
[26] = target: Tyrosine-protein kinase Blk (Homo sapiens) (UniProt P51451)
[27] = target: Serine/threonine-protein kinase 3 (Homo sapiens) (UniProt Q13188)
[28] = target: Serine/threonine-protein kinase PRP4 homolog (Homo sapiens) (UniProt Q13523)
[29] = target: Leucine-rich repeat serine/threonine-protein kinase 2 (Homo sapiens) (UniProt Q5S007)
[30] = target: Serine/threonine-protein kinase Nek3 (Homo sapiens) (UniProt P51956)
[31] = target: Serine/threonine-protein kinase TAO1 (Homo sapiens) (UniProt Q7L7X3)
[32] = target: Tyrosine-protein kinase ABL1 (Homo sapiens) (UniProt P00519)
[33] = target: Ribosomal protein S6 kinase alpha-4 (Homo sapiens) (UniProt O75676)
[34] = test system: Proto-oncogene tyrosine-protein kinase receptor Ret (Homo sapiens), P07949 [V804L]
[35] = target: Proto-oncogene tyrosine-protein kinase receptor Ret (Homo sapiens) (UniProt P07949)
[36] = target: Ribosomal protein S6 kinase alpha-2 (Homo sapiens) (UniProt Q15349)
[37] = target: Serine/threonine-protein kinase MRCK gamma (Homo sapiens) (UniProt Q6DT37)
[38] = target: Serine/threonine-protein kinase LATS2 (Homo sapiens) (UniProt Q9NRM7)
[39] = target: Macrophage colony-stimulating factor 1 receptor (Homo sapiens) (UniProt P07333)
[40] = target: Inhibitor of nuclear factor kappa-B kinase subunit epsilon (Homo sapiens) (UniProt Q14164)
[41] = test system: ALK tyrosine kinase receptor (Homo sapiens), Q9UM73 [C1156Y]
[42] = target: Serine/threonine-protein kinase ICK (Homo sapiens) (UniProt Q9UPZ9)
[43] = target: Mitogen-activated protein kinase kinase kinase 3 (Homo sapiens) (UniProt Q99759)
[44] = target: Serine/threonine-protein kinase 17B (Homo sapiens) (UniProt O94768)
[45] = target: Casein kinase I isoform alpha (Homo sapiens) (UniProt P48729)

Serine/threonine-protein kinase MRCK gamma (Homo sapiens), sequence (Q6DT37 whole entry): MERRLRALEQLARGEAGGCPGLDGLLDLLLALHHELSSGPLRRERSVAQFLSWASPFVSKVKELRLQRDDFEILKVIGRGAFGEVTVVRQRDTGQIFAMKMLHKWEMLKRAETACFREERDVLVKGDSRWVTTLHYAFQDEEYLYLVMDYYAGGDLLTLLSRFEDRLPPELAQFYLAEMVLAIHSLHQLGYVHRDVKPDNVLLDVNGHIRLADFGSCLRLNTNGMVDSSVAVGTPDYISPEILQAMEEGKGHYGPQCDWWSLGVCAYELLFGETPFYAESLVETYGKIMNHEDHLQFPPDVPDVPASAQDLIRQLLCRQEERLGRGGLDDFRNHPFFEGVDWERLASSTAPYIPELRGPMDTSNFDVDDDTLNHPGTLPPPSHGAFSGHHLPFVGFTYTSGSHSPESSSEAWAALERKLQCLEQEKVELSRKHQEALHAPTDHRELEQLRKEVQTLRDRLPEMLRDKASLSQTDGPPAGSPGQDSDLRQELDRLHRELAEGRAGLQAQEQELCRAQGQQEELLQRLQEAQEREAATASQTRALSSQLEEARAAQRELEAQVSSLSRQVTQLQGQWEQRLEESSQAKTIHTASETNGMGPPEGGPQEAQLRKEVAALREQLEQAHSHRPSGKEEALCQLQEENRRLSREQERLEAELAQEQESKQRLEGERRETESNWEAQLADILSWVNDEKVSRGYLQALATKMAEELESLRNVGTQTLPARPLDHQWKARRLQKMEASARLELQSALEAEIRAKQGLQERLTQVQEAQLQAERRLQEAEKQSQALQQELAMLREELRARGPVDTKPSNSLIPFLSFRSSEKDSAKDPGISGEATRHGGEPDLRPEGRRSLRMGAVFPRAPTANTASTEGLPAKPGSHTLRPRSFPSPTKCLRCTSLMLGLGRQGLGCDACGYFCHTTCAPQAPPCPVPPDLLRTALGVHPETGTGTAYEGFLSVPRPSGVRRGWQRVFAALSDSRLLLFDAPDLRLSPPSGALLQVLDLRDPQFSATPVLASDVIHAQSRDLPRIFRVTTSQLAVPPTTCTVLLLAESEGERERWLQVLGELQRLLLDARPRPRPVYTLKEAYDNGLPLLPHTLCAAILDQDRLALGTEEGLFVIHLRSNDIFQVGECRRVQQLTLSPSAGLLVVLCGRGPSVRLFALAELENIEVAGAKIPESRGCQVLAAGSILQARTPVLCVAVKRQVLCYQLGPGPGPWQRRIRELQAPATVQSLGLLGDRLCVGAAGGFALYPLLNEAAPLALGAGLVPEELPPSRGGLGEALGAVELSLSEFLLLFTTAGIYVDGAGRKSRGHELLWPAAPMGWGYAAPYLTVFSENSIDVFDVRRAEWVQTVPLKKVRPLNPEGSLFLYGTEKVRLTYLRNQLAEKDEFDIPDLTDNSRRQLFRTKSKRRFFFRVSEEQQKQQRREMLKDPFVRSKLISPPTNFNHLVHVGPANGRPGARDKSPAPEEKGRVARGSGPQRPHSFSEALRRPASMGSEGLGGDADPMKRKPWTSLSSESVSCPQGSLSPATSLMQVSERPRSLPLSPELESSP
Ribosomal protein S6 kinase alpha-2 (Homo sapiens), sequence (Q15349 whole entry): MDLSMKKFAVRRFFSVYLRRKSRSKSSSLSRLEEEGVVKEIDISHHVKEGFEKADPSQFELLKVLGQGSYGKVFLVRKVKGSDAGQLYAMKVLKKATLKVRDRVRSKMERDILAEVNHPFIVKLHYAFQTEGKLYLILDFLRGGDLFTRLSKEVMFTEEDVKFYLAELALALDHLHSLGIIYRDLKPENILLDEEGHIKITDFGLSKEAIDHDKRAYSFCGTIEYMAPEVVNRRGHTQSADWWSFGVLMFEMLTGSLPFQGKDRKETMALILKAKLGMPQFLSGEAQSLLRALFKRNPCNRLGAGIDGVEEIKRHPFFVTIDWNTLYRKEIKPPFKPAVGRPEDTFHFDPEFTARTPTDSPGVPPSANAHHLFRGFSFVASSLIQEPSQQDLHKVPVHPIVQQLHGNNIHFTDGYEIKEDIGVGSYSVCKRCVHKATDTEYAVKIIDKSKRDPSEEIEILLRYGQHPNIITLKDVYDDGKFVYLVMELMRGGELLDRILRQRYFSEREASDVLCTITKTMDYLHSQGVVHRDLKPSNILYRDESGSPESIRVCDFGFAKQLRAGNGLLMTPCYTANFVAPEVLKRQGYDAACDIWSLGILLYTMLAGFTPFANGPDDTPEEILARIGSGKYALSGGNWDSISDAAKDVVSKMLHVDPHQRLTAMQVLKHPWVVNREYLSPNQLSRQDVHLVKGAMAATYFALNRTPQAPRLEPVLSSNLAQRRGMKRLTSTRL
Phosphatidylinositol 3-kinase catalytic subunit type 3 (Homo sapiens), sequence (Q8NEB9 whole entry): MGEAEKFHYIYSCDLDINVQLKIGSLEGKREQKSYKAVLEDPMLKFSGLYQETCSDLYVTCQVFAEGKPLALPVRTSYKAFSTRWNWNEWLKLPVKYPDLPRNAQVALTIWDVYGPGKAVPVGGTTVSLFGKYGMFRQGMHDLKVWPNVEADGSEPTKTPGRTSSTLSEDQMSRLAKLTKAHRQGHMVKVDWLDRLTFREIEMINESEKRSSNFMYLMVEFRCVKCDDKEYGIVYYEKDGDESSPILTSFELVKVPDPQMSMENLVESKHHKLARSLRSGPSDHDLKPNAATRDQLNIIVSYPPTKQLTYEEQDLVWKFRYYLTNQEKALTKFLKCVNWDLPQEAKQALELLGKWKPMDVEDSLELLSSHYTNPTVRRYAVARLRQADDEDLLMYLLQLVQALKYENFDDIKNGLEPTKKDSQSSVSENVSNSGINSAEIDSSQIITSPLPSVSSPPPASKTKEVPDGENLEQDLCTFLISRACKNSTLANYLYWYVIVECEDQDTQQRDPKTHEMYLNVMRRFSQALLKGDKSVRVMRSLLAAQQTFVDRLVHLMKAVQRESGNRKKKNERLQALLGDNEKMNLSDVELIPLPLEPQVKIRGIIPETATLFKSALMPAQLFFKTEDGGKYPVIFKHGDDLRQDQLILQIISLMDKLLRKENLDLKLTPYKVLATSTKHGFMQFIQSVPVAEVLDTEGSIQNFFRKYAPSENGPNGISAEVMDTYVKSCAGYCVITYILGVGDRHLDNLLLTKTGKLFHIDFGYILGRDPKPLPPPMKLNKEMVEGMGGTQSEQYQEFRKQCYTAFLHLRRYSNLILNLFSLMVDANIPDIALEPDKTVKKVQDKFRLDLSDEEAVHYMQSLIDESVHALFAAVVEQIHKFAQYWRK
Serine/threonine-protein kinase 26 (Homo sapiens), sequence (Q9P289 2-416 limits assumed): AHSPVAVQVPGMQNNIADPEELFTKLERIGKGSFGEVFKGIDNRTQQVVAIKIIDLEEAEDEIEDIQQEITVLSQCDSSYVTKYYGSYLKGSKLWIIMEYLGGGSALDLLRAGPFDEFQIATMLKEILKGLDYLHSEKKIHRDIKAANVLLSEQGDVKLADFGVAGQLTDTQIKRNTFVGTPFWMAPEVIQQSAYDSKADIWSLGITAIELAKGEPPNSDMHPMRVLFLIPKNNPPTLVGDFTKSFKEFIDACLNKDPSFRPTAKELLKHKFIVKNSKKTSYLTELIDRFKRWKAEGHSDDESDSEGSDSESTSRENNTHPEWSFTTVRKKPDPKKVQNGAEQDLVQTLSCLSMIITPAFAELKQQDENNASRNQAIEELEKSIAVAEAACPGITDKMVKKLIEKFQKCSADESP
Serine/threonine-protein kinase PAK 1 (Homo sapiens), sequence (Q13153 whole entry): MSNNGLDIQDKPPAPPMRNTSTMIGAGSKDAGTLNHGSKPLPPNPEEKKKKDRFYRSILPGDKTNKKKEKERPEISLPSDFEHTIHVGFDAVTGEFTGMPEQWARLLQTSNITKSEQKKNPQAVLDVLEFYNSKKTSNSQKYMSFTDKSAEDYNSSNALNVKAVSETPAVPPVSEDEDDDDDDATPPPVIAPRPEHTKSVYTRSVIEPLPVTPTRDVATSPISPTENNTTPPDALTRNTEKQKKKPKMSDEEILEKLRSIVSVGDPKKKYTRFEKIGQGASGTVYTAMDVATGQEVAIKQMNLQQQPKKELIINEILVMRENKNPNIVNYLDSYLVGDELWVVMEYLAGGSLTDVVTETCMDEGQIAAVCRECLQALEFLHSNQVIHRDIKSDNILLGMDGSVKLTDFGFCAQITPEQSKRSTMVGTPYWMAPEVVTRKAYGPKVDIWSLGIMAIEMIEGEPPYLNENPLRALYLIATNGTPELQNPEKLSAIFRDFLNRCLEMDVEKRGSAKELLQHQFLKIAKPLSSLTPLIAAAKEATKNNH
Testis-specific serine/threonine-protein kinase 1 (Homo sapiens), sequence (Q9BXA7 whole entry): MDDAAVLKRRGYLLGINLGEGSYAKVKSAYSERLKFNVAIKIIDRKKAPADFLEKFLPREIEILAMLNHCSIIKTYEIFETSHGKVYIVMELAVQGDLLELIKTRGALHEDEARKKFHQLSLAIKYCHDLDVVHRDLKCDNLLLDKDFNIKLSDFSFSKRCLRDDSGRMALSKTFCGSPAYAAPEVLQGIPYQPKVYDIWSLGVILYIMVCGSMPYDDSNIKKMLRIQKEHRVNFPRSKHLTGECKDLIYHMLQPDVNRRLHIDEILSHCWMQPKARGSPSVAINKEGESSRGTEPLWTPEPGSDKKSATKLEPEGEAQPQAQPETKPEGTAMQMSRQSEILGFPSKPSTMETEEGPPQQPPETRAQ
Cyclin-dependent kinase 18 (Homo sapiens), sequence (Q07002 whole entry): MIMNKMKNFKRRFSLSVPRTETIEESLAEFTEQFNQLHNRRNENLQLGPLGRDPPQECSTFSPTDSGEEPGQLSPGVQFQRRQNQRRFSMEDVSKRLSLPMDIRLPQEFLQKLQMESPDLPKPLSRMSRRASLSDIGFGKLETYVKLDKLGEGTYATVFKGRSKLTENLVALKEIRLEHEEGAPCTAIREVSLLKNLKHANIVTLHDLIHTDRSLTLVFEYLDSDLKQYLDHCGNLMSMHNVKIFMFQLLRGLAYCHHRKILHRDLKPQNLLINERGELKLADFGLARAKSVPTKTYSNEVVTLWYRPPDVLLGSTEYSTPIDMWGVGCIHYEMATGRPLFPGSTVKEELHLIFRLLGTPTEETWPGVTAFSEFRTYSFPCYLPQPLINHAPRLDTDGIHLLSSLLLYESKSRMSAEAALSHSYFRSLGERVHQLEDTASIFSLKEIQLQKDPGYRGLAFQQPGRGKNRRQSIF

Compound: CS(=O)(=O)N1CCCC(NC(=O)[C@H](CCC2CCCCC2)NC(=O)c2ccc(CNc3ncnc4c3nnn4-c3ccccc3)cc2)C1 (stereo not given in full) [SR-301]
- residual activity [1]: 100%
- residual activity [2]: 100%
- residual activity [3]: 100%
- residual activity [4]: 100%
- residual activity [5]: 91%
- residual activity [6]: 100%
- residual activity [7]: 100%
- residual activity [8]: 100%
- residual activity [9]: 93%
- residual activity [10]: 100%
- residual activity [11]: 100%
- residual activity [12]: 100%
- residual activity [13]: 90%
- residual activity [14]: 86%
- residual activity [15]: 94%
- residual activity [16]: 80%
- residual activity [17]: 85%
- residual activity [18]: 100%
- residual activity [19]: 73%
- residual activity [20]: 100%
- residual activity [21]: 100%
- residual activity [22]: 92%
- residual activity [23]: 85%
- residual activity [24]: 100%
- residual activity [25]: 83%
- residual activity [26]: 100%
- residual activity [27]: 95%
- residual activity [28]: 60%
- residual activity [29]: 51%
- residual activity [30]: 100%
- residual activity [31]: 100%
- residual activity [32]: 82%
- residual activity [33]: 86%
- residual activity [34]: 83%
- residual activity [35]: 87%
- residual activity [36]: 100%
- residual activity [37]: 99%
- residual activity [38]: 100%
- residual activity [39]: 100%
- residual activity [40]: 73%
- residual activity [41]: 100%
- residual activity [42]: 100%
- residual activity [43]: 100%
- residual activity [44]: 100%
- residual activity [45]: 99%

Compound: CS(=O)(=O)N1CCCC(NC(=O)[C@H](CCC2CCCCC2)NC(=O)c2ccc(CNC(=O)c3cnc4ccccn34)cc2)C1 (stereo not given in full) [SR-302]
- residual activity [1]: 42%
- residual activity [2]: 82%
- residual activity [3]: 100%
- residual activity [4]: 74%
- residual activity [5]: 99%
- residual activity [6]: 100%
- residual activity [7]: 83%
- residual activity [8]: 100%
- residual activity [9]: 100%
- residual activity [10]: 98%
- residual activity [11]: 100%
- residual activity [12]: 100%
- residual activity [13]: 100%
- residual activity [14]: 100%
- residual activity [15]: 96%
- residual activity [16]: 100%
- residual activity [17]: 94%
- residual activity [18]: 100%
- residual activity [19]: 92%
- residual activity [20]: 100%
- residual activity [21]: 85%
- residual activity [22]: 100%
- residual activity [23]: 98%
- residual activity [24]: 100%
- residual activity [25]: 86%
- residual activity [26]: 100%
- residual activity [27]: 88%
- residual activity [28]: 74%
- residual activity [29]: 64%
- residual activity [30]: 100%
- residual activity [31]: 88%
- residual activity [32]: 61%
- residual activity [33]: 97%
- residual activity [34]: 98%
- residual activity [35]: 85%
- residual activity [36]: 94%
- residual activity [37]: 98%
- residual activity [38]: 76%
- residual activity [39]: 65%
- residual activity [40]: 100%
- residual activity [41]: 100%
- residual activity [42]: 100%
- residual activity [43]: 100%
- residual activity [44]: 83%
- residual activity [45]: 100%
